Active and inactive are the calls of the source.
Assays:
[1] = target: T1, RNA-binding protein pos-1 (Caenorhabditis elegans, UniProt G5EF15); test: inhibitors of POS-1/mex-3 RNA binding, dose response, biochemical, fluorescence polarization (AID 1964);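 further: purified POS-1 fused to maltose binding protein made in E. coli; potency of compounds blocking POS-1 binding to fluorescent RNA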
T1 sequence (G5EF15 whole entry): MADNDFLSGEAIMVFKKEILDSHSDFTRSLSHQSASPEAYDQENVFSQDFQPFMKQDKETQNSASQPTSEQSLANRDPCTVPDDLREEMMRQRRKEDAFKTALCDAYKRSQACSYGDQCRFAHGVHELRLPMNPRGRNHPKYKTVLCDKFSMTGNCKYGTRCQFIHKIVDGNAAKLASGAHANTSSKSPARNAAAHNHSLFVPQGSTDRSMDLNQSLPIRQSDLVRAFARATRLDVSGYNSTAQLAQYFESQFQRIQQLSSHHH

[2] = target: T2, Sentrin-specific protease 6 (Homo sapiens, UniProt Q9GZR1); assay type: functional;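 further: Luminescence-based dose-response confirmatory assay of SENP6 inhibition, following up an ultra-high-throughput screen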
T2 sequence (Q9GZR1 whole entry): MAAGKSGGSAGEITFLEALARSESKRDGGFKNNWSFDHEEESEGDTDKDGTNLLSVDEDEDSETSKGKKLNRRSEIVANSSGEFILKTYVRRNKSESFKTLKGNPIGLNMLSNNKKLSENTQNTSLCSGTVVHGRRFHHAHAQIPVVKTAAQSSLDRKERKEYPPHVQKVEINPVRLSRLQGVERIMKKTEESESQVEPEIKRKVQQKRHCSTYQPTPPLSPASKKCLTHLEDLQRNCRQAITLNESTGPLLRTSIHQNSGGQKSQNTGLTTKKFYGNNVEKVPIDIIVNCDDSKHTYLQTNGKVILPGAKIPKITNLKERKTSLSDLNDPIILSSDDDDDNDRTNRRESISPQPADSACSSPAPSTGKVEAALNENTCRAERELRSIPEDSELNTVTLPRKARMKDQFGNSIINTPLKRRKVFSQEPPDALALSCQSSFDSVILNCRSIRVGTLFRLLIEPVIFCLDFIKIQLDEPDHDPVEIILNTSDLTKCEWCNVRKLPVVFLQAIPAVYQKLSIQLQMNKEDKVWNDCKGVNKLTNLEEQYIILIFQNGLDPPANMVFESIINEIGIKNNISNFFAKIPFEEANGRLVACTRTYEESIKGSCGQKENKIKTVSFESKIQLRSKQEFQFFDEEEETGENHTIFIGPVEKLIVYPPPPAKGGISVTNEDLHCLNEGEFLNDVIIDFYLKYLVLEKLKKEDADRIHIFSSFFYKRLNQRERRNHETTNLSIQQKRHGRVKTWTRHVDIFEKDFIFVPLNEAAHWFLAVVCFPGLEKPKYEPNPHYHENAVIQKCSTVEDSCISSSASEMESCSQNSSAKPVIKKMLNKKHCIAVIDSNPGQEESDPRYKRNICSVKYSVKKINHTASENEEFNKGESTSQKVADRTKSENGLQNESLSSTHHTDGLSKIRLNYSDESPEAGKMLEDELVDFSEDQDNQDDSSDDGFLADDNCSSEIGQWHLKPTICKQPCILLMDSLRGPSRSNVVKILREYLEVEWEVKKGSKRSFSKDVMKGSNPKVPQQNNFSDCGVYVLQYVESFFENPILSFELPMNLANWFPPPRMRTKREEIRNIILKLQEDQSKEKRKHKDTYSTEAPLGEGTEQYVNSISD

[3] = target: T3, Endoribonuclease toxin MazF (Escherichia coli K-12, UniProt P0AE70); test: fluorescent RNA oligo signal without MazF, dose response, counter-screen for MazEF activator project, biochemical, fluorescence, single-stranded RNase substrate (AID 588502); assay type: functional
T3 sequence (P0AE70 whole entry): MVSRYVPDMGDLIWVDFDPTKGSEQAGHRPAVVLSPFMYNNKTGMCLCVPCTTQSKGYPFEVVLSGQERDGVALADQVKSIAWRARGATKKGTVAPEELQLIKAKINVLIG

[4] = target: DNA (cytosine-5)-methyltransferase 1 (Homo sapiens, UniProt P26358); test: DNMT1 methyltransferase inhibitors, confirmation, biochemical, fluorescent molecular beacon (AID 602386); assay type: functional
Sequence of DNA (cytosine-5)-methyltransferase 1 (P26358 whole entry): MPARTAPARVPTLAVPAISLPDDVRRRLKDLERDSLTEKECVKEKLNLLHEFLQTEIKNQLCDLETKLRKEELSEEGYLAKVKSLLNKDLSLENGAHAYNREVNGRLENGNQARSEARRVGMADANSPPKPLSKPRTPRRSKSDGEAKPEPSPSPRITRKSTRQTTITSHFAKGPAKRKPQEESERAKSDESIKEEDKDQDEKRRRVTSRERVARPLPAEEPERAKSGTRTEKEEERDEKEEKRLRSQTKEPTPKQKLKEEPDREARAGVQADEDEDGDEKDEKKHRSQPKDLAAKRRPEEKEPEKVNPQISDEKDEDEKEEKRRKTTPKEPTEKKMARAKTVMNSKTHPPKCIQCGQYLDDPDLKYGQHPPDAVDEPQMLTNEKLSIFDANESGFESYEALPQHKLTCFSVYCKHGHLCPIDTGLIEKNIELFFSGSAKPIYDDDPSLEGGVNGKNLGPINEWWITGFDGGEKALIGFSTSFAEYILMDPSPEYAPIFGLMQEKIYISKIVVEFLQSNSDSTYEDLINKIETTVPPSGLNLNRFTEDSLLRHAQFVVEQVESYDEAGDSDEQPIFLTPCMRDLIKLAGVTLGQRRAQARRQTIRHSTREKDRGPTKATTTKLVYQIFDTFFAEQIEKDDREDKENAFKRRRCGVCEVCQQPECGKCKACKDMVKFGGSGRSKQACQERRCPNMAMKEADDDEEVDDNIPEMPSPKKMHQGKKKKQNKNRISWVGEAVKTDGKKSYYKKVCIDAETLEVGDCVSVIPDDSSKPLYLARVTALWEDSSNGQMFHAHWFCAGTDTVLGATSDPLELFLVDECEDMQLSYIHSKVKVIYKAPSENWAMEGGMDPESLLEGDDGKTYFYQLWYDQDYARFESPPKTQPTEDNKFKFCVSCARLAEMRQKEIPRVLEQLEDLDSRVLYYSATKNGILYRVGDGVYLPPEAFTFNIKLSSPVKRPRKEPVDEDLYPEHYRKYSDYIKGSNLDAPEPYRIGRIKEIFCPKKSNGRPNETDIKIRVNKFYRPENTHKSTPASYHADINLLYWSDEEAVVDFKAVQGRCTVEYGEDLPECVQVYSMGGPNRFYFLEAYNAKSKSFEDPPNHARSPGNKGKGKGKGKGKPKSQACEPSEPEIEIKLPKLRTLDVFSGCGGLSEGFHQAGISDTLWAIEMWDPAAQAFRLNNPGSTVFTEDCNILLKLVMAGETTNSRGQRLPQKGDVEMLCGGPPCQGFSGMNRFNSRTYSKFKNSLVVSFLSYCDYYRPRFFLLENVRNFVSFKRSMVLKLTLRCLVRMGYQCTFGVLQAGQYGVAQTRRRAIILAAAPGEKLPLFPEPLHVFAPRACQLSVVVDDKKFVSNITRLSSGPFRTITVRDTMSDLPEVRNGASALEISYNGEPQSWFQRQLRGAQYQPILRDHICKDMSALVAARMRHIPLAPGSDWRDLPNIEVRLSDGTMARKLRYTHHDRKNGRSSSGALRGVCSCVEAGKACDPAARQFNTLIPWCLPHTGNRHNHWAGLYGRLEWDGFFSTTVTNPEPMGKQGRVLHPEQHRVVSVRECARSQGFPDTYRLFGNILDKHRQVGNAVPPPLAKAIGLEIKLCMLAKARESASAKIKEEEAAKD

[5] = target: T4, Microphthalmia-associated transcription factor (Homo sapiens, UniProt O75030); test: TRPM1 promoter luciferase signal decrease, dose response, MITF inhibitor project, cell-based, SK-MEL-5, cherry-picked, set 3 (AID 493073); assay type: functional
T4 sequence (O75030 whole entry): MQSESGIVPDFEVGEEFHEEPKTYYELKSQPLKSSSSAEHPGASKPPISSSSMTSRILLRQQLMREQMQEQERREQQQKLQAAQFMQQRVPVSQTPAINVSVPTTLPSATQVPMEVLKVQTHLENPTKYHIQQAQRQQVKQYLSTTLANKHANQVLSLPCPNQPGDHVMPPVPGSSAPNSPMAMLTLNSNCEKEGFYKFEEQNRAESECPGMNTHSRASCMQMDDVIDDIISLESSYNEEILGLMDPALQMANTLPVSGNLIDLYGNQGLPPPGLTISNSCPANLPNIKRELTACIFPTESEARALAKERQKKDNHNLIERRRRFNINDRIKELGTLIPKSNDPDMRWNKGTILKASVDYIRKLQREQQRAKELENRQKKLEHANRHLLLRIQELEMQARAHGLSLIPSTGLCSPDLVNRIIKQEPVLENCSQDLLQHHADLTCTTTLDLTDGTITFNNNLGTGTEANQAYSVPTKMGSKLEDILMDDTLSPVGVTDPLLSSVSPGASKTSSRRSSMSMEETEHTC

Which EC50 [1] does the source give for Oc1[nH]c2ccccc2c1N=Nc1ccc(F)cc1 here?
Its EC50 is > 300 µM (not active).

What about the IC50 [2] of the same molecule?
The IC50 was 2.03 µM (active).

What about the EC50 [3] of the same molecule?
Its EC50 is > 99 µM (inactive).

What about the IC50 [4] of the same molecule?
The IC50 was 19.3 µM (active).

Which AC50 [5] does the source give for O=C1C(Nc2ccccc2)=C(N2CCCCC2)C(=O)c2ccccc21 here?
The AC50 was 6.67 µM (active).
